Experimental data taken from patent US8207357B2, “Rotaxane compound and antitumor agent” (Wan Station Co., Ltd., priority 2008, dated 2012).

How the values were obtained:
[1] = system: human malignant melanoma-derived cell line G361; assay: Antitumor activity, viable cell count (Tetra Color ONE, absorbance 450 nm) in G361; assay type: cell-based; conditions: G361, at every rotaxane concentrations, FIG. 2
Procedure: (§1) As tumor cells, mouse colon tumor cell-derived cell line Colon-26, human glioblastoma-derived cell line T98G, and human malignant melanoma-derived cell line G361 were used. The tumor cells of each cell line were cultured in RPMI 1640 containing 10% FBS and 0.5% penicillin-streptomycin, as the base medium, in the presence of 5% CO2, at 37° C., under humidity conditions. The tumor cells (5.0×10^4) of each cell line having been cultured to a sufficiently confluent state were seeded in a 1.5 mL tube together with the medium. Each of the rotaxane compounds was dissolved in DMSO as a vehicle (solvent) and was added to the tube in a predetermined concentration so that the total amount is 1000 μL. Then, 100 μL of this was dispensed to each well of a 96-well microplate and was incubated in a CO2 incubator for 24 hours. Subsequently, 10 μL of a viable-cell-counting reagent (Tetra Color ONE, a product of Seikagaku Corporation) was added to each well of the 96-well microplate, and a reaction was performed in the CO2 incubator for 2 hours. The ultraviolet absorbance at 450 nm (control wavelength: 620 nm) was measured […] the reaction with a microplate reader. Note that the higher absorbance means the lager number of viable cells.
The antitumor activity of TRO-A0010 was verified using T98G and G361 as tumor cells as in the above (5-1).

[2] = system: mouse colon tumor cell-derived cell line Colon-26; assay: Antitumor activity, viable cell count (Tetra Color ONE, absorbance 450 nm) in Colon-26; assay type: cell-based; conditions: Colon-26, 1.25 μM, compared with Control, FIG. 1
Procedure: as §1
The antitumor activities of TRO-A0014 and TRO-A0015 were verified using Colon-26 as tumor cells as in the method of (5-1) described above. […]

| Substance | cell growth-inhibiting effect compared with TRO-A0001 [1] | cell growth-inhibiting effect at a concentration of 1.25 μM [2] |
| --- | --- | --- |
| [2][bis(3,5-dimethylphenylcarboxypentyl)ammonium-rotaxa-[2,5,8,11,13,16,19,22-octaoxa-1,12(1,2)-dibenzenacyclodocosaphane]]trifluoromethanesulfonate [TRO-A0010] | higher than that of TRO-A0001 |  |
| [2][(3,5-dimethylphenylcarboxyethyl)(3,5-dimethylphenylcarboxypropyl) ammonium-rotaxa-[2,5,8,11,13,16,19,22-octaoxa-1,12(1,2)-dibenzenacyclodocosaphane]] trifluoromethanesulfonate [TRO-A0014] |  | obviously observed |
